Laboratory results: patent publication US12612412B2, “Antiviral heterocyclic compounds” (Enanta Pharmaceuticals, Inc., priority 2021, dated 2026)
pEC50: −log10 of the molar value. Like-named read-outs stand apart in the source and are kept apart here.

Assays:
[1] = system: genotype A, "Long" strain RSV; experiment: RSV-A assay (CPE protection in Hep-2 cells, ATPlite readout); format: cell-based, Human respiratory syncytial virus (HRSV); conditions: human respiratory syncytial virus, MOI 0.1, CPE protection
How it was run: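 ATPlite luminescence (cellular ATP) served as the measure of cell health after 5 days of infection. Hep-2 cells at 8,000 per well received duplicate 2-fold compound dilutions plus virus at MOI 0.1, and EC50 was calculated from CPE protection.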

[2] = system: HMPV clinical isolate TN/1501/A1; experiment: HMPV antiviral assay Method-B (clinical isolate TN/1501/A1 in LLC-MK2 cells, ATP-Lite readout); format: cell-based, Human metapneumovirus (HMPV); conditions: human metapneumovirus, LLC-MK2, 144 h, hMPV WT1501 (clinical isolate TN/1501/A1), 6 days
Procedure: In vitro HMPV antiviral activity was evaluated using the clinical isolate TN/1501/A1 and LLC-MK2 cells (ATCC #CCL-7), an immortalized kidney epithelial cell line from Macaca mulatta. Compounds were resuspended in dimethyl sulfoxide (DMSO) at 10 mM and added to a 384-well source plate. The compounds were diluted and transferred onto 384-well assay plates using the Echo-650 automated liquid handling system (Beckman Coulter, Indiana). The test compounds were assessed in duplicate at a top concentration of 10 μM followed by 3-fold serial dilutions to give a total of 10 concentration points. DMSO control wells were also included on the assay plates and were either infected or not, acting as positive and negative controls. TN/1501/A1 virus infections were performed in-suspension with LLC-MK2 cells. The cells were washed twice with PBS and removed from the cell-culture flask with 0.25% trypsin-EDTA (Thermo Fisher Scientific, MA). The trypsin-EDTA was inactivated by resuspending in 2% fetal bovine serum (FBS) and OptiMEM (ThermoFisher Scientific, MA) containing 1% penicillin-streptomycin. Cells were pelleted by centrifuging for 5 minutes at 800 rpm, the supernatant was removed, and cells were suspended in PBS plus 100 μg/mL CaCl2). This step was performed twice. Cells were then resuspended in serum-free (SF)-OptiMEM containing 4 μg/mL TPCK-Trypsin (Sigma Aldrich, MO), 1% penicillin-streptomycin (ThermoFisher Scientific, MA) and 100 μg/mL CaCl2). Cells were counted and seeded at a density of 5,000 cells/well, 12.5 μL/well. Virus infections were done at a multiplicity of infection (MOI) of 0.014 with 12.5 μL added per well. SF-OptiMEM, 12.5 μL/well, was added to the appropriate wells to serve as a virus-free negative control for the assay. The final concentration of TPCK-trypsin was 2 μg/mL. Plates were incubated at 37° C., 5% CO2 for 6 days. After 6 days incubation, 12.5 μL of ATP-Lite (PerkinElmer, MA) was added to each well and the raw luminescence values were determined using the Envision 2104 (Perkin Elmer, MA). The average of the raw luminescence values for the cells and virus only positive control wells was subtracted from all conditions tested and the percent cell health was determined by dividing these values by the average of the cells only negative control wells. EC50 values were then calculated by non-linear regression using a four-parameter curve logistic equation. The curve fit model employed was XLFit Dose Response One Site Model 200: y=(A+(B/(1+((x/C)^D)))), where A is the minimum y value, B is the maximum y value, C is the log EC50 value, and D is the slope factor. […] EC50 ranges are as follows: A<0.5 μM; B>0.5 μM.

[3] = genotype A “Long” strain RSV, read-out: Human RSV-A (“Long”)
[4] = RSV-A Long strain, read-out: Human RSV-A (“Long”) EC50

COc1cc(C(=O)NC[C@](O)(c2cc3c(c(-c4ccc(F)cc4)n2)OC[C@]3(C)C(N)=O)C2CC2)cc2cc(C3CC3)nnc12 [Example 763]
pEC50 [1, 3]: > 6.70 | pEC50 [2]: > 6.30

C[C@]1(C(N)=O)COc2c1cc([C@@](O)(CNC(=O)c1ccc3nn(C4CC4)cc3c1)C1CC1)nc2-c1c(F)ccc(Cl)c1F [Example 1167]
pEC50 [1, 4]: > 6.70 | pEC50 [2]: > 6.30

Cc1nc2c(Cl)cc(C(=O)NC[C@](O)(c3cc4c(c(-c5ccc(F)cc5)n3)OC[C@]4(C)C(N)=O)C(F)(F)F)cc2[nH]1 [Example 487]
pEC50 [1, 3]: > 6.70 | pEC50 [2]: < 6.30

Cc1cnc2c(OC(F)F)cc(C(=O)NC[C@](O)(c3cc4c(c(-c5ccc(F)c(Cl)c5F)n3)OC[C@]4(C)C(N)=O)C3CC3)cc2c1 [Example 558]
pEC50 [1, 3]: > 6.70 | pEC50 [2]: > 6.30

COc1cc(C(=O)NC[C@](O)(c2cc3c(c(-c4cc5c(cc4Cl)OC(F)(F)O5)n2)OC[C@]3(C)C(N)=O)C(F)(F)F)cc2cn(C3CC3)nc12 [Example 1227]
pEC50 [1, 4]: > 6.70 | pEC50 [2]: > 6.30

COc1cc(C(=O)NC[C@](O)(c2cc3c(c(-c4ccc(F)c(Cl)c4)n2)OC[C@@]3(C(N)=O)C(F)F)C(F)(F)F)cc2cn(C3CC3)nc12 [Example 1003]
pEC50 [1, 4]: > 6.70 | pEC50 [2]: > 6.30

Cc1cnc2c(Cl)cc(C(=O)NC[C@](O)(c3cc4c(c(-c5cc(Cl)c(F)c(Cl)c5)n3)OC[C@]4(C)C(N)=O)C(F)(F)F)cc2c1 [Example 675]
pEC50 [1, 3]: > 6.70 | pEC50 [2]: < 6.30

COc1cc(C(=O)NC[C@](O)(c2cc3c(c(-c4cc(Cl)c(F)c(Cl)c4)n2)OC[C@]3(C)C(N)=O)C(F)(F)F)cc2cn(C3CC3)nc12 [Example 669]
pEC50 [1, 3]: > 6.70 | pEC50 [2]: < 6.30

COc1cc(C(=O)NC[C@](O)(c2cc3c(c(-c4ccc5nc(C)ccc5c4)n2)OC[C@]3(C)C(N)=O)C(F)(F)F)cc2cn(C3CC3)nc12 [Example 967]
pEC50 [1, 4]: < 6.70 | pEC50 [2]: < 6.30

Cc1cnc2c(OC(F)F)cc(C(=O)NC[C@](O)(c3cc4c(c(-c5ccc(F)c(F)c5F)n3)OC[C@]4(C)C(N)=O)C3CC3)cc2c1 [Example 527]
pEC50 [1, 3]: > 6.70 | pEC50 [2]: > 6.30

COc1cc(C(=O)NC[C@](O)(c2cc3c(c(-c4ccc(F)c(Cl)c4F)n2)OC[C@]3(C)C(N)=O)C2CC2)cc2cc(Cl)c(C)nc12 [Example 557]
pEC50 [1, 3]: > 6.70 | pEC50 [2]: > 6.30

COc1cc(C(=O)NC[C@](O)(c2cc3c(c(-c4ccc(F)cc4)n2)OC[C@]3(C)C(N)=O)C2(F)CC2)cc2cn(C3CC3)nc12 [Example 705]
pEC50 [1, 3]: > 6.70 | pEC50 [2]: > 6.30

COc1cc(C(=O)NC[C@](O)(c2cc3c(c(-c4csc5c(F)cccc45)n2)OC[C@]3(C)C(N)=O)C2CC2)cc2cn(C3(F)CC3)nc12 [Example 604]
pEC50 [1, 3]: > 6.70 | pEC50 [2]: > 6.30

COc1cc(C(=O)NC[C@](O)(c2cc3c(c(-c4ccc(F)c(Cl)c4)n2)OC[C@]3(C)C(N)=O)C2CC2)cc2cn(C3(Cl)CC3)nc12 [Example 841]
pEC50 [1, 4]: > 6.70 | pEC50 [2]: > 6.30

COc1cc(C(=O)NC[C@](O)(c2cc3c(c(-c4ccc(F)c(Cl)c4F)n2)OC[C@]3(C)C(N)=O)C(F)(F)F)cc2cn(C3CC3)nc12 [Example 930]
pEC50 [1, 4]: > 6.70 | pEC50 [2]: > 6.30

COc1cc(C(=O)NC[C@](O)(c2cc3c(c(-c4ccc(F)cc4)n2)OC[C@]3(CF)C(N)=O)C2CC2)cc2cn(C(F)F)nc12 [Example 1062]
pEC50 [1, 4]: > 6.70 | pEC50 [2]: > 6.30

COc1cc(C(=O)NC[C@](O)(c2nc(-c3ccc(F)cc3)c3c(c2F)[C@@](C)(C(N)=O)CO3)C(F)(F)F)cc2cn(C3CC3)nc12 [Example 851]
pEC50 [1, 4]: > 6.70 | pEC50 [2]: > 6.30

COc1cc(C(=O)NC[C@](O)(c2cc3c(c(-c4ccc5c(c4)OC(F)(F)O5)n2)OC[C@]3(C)C(N)=O)C2CC2)cc2cc(C3CC3)nn12 [Example 826]
pEC50 [1, 3]: > 6.70 | pEC50 [2]: > 6.30

COc1cc(C(=O)NC[C@](O)(c2cc3c(c(-c4ccc(F)c(F)c4Cl)n2)OC[C@]3(C)C(N)=O)C2CC2)cc2cc(Cl)c(C)nc12 [Example 565]
pEC50 [1, 3]: > 6.70 | pEC50 [2]: > 6.30

COc1cc(C(=O)NC[C@](O)(c2cc3c(c(-c4ccc(F)c(Br)c4F)n2)OC[C@]3(C)C(N)=O)C(F)(F)F)cc2cn(C3CC3)nc12 [Example 956]
pEC50 [1, 4]: > 6.70 | pEC50 [2]: > 6.30

COc1cc(C(=O)NC[C@](O)(c2cc3c(c(-c4cc(F)c(Cl)cc4F)n2)OC[C@]3(C)C(N)=O)C2CC2)cc2cc(Cl)c(C)nc12 [Example 1182]
pEC50 [1, 4]: > 6.70 | pEC50 [2]: > 6.30

COc1cc(C(=O)NC[C@](O)(c2cc3c(c(-c4csc(C(F)F)c4)n2)OC[C@]3(C)C(N)=O)C(F)(F)F)cc2cn(C3CC3)nc12 [Example 945]
pEC50 [1, 4]: > 6.70 | pEC50 [2]: < 6.30

COc1cc(C(=O)NC[C@](O)(c2cc3c(c(-c4cccc(OC(F)F)c4)n2)OC[C@]3(C)C(N)=O)C(F)(F)F)cc2cn(C3CC3)nc12 [Example 918]
pEC50 [1, 4]: > 6.70 | pEC50 [2]: < 6.30

COc1cc(C(=O)NC[C@](O)(c2cc3c(c(-c4ccc5c(c4)OC(F)(F)O5)n2)OC[C@]3(C)C(N)=O)C2(F)CC2)cc2sc(C)nc12 [Example 727]
pEC50 [1, 3]: > 6.70 | pEC50 [2]: > 6.30

COc1cc(C(=O)NC[C@](O)(c2nc(-c3ccc(F)cc3)c3c(c2F)[C@](C)(C(N)=O)CO3)C(F)(F)F)cc2cn(C3CC3)nc12 [Example 850]
pEC50 [1, 4]: > 6.70 | pEC50 [2]: < 6.30

COc1cc(C(=O)NC[C@](O)(c2cc3c(c(-c4ccc(F)c(F)c4F)n2)OC[C@]3(C)C(N)=O)C(F)(F)F)cc2cc(C3CC3)nn12 [Example 507]
pEC50 [1, 3]: > 6.70 | pEC50 [2]: > 6.30

COc1ccc(C(=O)NC[C@](O)(c2cc3c(c(-c4ccc(F)cc4)n2)OC[C@]3(C)C(N)=O)C(F)(F)F)n2ccnc12 [Example 699]
pEC50 [1, 3]: > 6.70 | pEC50 [2]: < 6.30

C[C@]1(C(N)=O)COc2c1cc([C@@](O)(CNC(=O)c1cc(O)c3nn(C4CC4)cc3c1)C(F)(F)F)nc2-c1ccc(F)cc1 [Example 590]
pEC50 [1, 3]: > 6.70 | pEC50 [2]: < 6.30

Cc1cnc2c(Cl)cc(C(=O)NC[C@](O)(c3cc4c(c(-c5ccc6c(c5)OC(F)(F)O6)n3)OC[C@]4(C)C(N)=O)C3CC3)cc2c1 [Example 539]
pEC50 [1, 3]: > 6.70 | pEC50 [2]: > 6.30

Cc1cnc2c(OC(F)F)cc(C(=O)NC[C@](O)(c3cc4c(c(-c5ccc(F)c(F)c5F)n3)OC[C@]4(C)C(N)=O)C(F)(F)F)cc2c1 [Example 523]
pEC50 [1, 3]: > 6.70 | pEC50 [2]: > 6.30

COc1cc(C(=O)NC[C@](O)(c2cc3c(c(-c4ccc5c(c4)OC(F)(F)O5)n2)OC[C@]3(C)C(N)=O)C2CC2)cc2cn(C(F)F)nc12 [Example 823]
pEC50 [1, 3]: > 6.70 | pEC50 [2]: > 6.30

COc1cc(C(=O)NC[C@](O)(c2cc3c(c(-c4ccc(F)c(F)c4F)n2)OC[C@]3(C)C(N)=O)C2(F)CC2)cc2cn(C3CC3)nc12 [Example 729]
pEC50 [1, 3]: > 6.70 | pEC50 [2]: > 6.30

C[C@]1(C(N)=O)COc2c1cc([C@@](O)(CNC(=O)c1cc(OCCF)c3nn(C4(F)CC4)cc3c1)C(F)(F)F)nc2-c1cc(Cl)c(F)cc1F [Example 618]
pEC50 [1, 3]: > 6.70 | pEC50 [2]: > 6.30

COc1ncc2cc(C(=O)NC[C@](O)(c3cc4c(c(-c5ccc(F)cc5)n3)OC[C@]4(C)C(N)=O)C3CC3)cc(OC)c2n1 [Example 1144]
pEC50 [1, 4]: > 6.70 | pEC50 [2]: < 6.30

COc1cc(C(=O)NC[C@](O)(c2cc3c(c(-c4c(F)cc(Cl)cc4F)n2)OC[C@]3(C)C(N)=O)C2CC2)cc2cn(C3(F)CC3)nc12 [Example 1157]
pEC50 [1, 4]: > 6.70 | pEC50 [2]: > 6.30
